According to patent US20240350522A1, “HYGROMYCIN A FOR TREATMENT OF DISEASES AND INFECTIONS” (FLIGHTPATH BIOSCIENCES, INC., priority 2021, published 2024):
Values joined by “and” are separate entries in the source; they are usually repeats but may differ in a detail not shown here. Identical values can stand only once. Like-named read-outs stand apart in the source and are kept apart here.

Key:
[1] = tested on: Treponema pallidum pallidum SS14 strain; assay: T. pallidum susceptibility assay, co-culture with Sf1Ep cells, tp0574 (T47) qPCR after 7 days; assay type: cell-based; settings: for Mean T47 copies/μL, experimental values / Mean T47 copies/μL, Average: 7 days; for Mean T47 copies/μL, experimental values: replicate wells; for Mean T47 copies/μL, Average: average of 8 replicates
[2] = tested on: Fusobacterium nucleatum (ATCC 25586); assay: MBC of Hyg A against F. nucleatum ATCC 25586; assay type: cell-based; settings: for MBC: ATCC25586
[3] = tested on: Fusobacterium nucleatum (ATCC 25586); assay: MIC of Hyg A against F. nucleatum ATCC 25586; assay type: cell-based; settings: ATCC25586
SF1Ep cells = assay: Cytotoxicity assay, Cell Proliferation Reagent WST-1; assay type: cell-based, rabbit; settings: day 7; any concentration tested (0.03-3.84 μg/mL)
Description: Cytotoxicity assay was performed according to the Cell Proliferation Reagent WST-1 protocol (Attached; Roche, Basel, Switzerland). Absorbance was measured after 1 hour incubation with the reagent.

[4] = tested on: Porphyromonas gingivalis (ATCC 33277); assay: MBC of Hyg A against P. gingivalis; assay type: cell-based
Treponema denticola = assay: MIC of Hyg A against Treponema denticola strains (broth dilution, phenol red); assay type: cell-based; settings: for MIC: Treponema denticola
[5] = tested on: Treponema pallidum pallidum SS14 strain; assay: Treated treponemes seeded onto no-antibiotic plate, 7 more days, T47 qPCR (treponemicidal activity); assay type: cell-based; settings: for Mean T47 copies/μL, Avg. / Mean T47 copies/μL, Expt. values: seeded on no antibiotic plate; for Mean T47 copies/μL, Avg.: average; for Mean T47 copies/μL, Expt. values: replicate wells
[6] = pre-treated with Hygromycin A 0.03 μg/ml
[7] = pre-treated with Hygromycin A 0.06 μg/ml
[8] = pre-treated with Hygromycin A 0.12 μg/ml
[9] = pre-treated with Hygromycin A 0.24 μg/ml
[10] = pre-treated with Hygromycin A 0.48 μg/ml
[11] = pre-treated with Hygromycin A 0.96 μg/ml
[12] = pre-treated with Hygromycin A 1.92 μg/ml
[13] = pre-treated with Hygromycin A 3.84 μg/ml

CC(=O)[C@H]1O[C@@H](Oc2ccc(/C=C(\C)C(=O)N[C@@H]3[C@H](O)[C@@H](O)[C@H]4OCO[C@H]4[C@@H]3O)cc2O)[C@@H](O)[C@@H]1O [Hyg A, Hygromycin A]
Mean T47 copies/μL, experimental values ([1]; Hyg A 0.12 μg/ml): 372 copies/μL and 629 copies/μL and 710 copies/μL and 787 copies/μL and 926 copies/μL and 951 copies/μL and 965 copies/μL and 552 copies/μL
Mean T47 copies/μL, Average ([1]; Hyg A 0.24 μg/ml): 516 copies/μL
Mean T47 copies/μL, experimental values ([1]; Hyg A 0.24 μg/ml): 510 copies/μL and 491 copies/μL and 572 copies/μL and 587 copies/μL and 564 copies/μL and 600 copies/μL and 441 copies/μL and 360 copies/μL
Mean T47 copies/μL, Average ([1]; Hyg A 0.48 μg/ml): 426 copies/μL
Mean T47 copies/μL, experimental values ([1]; Hyg A 0.48 μg/ml): 327 copies/μL and 435 copies/μL and 503 copies/μL and 508 copies/μL and 487 copies/μL and 453 copies/μL and 342 copies/μL and 352 copies/μL
Mean T47 copies/μL, Average ([1]; Hyg A 0.96 μg/ml): 319 copies/μL
Mean T47 copies/μL, experimental values ([1]; Hyg A 0.96 μg/ml): 150 copies/μL and 307 copies/μL and 435 copies/μL and 361 copies/μL and 405 copies/μL and 327 copies/μL and 299 copies/μL and 268 copies/μL
Mean T47 copies/μL, Average ([1]; Hyg A 1.92 μg/ml): 323 copies/μL
Mean T47 copies/μL, Average ([1]; Hyg A 3.84 μg/ml): 275 copies/μL
lowest concentration effective against growth (no significant difference to higher concentrations) ([1]; SS14 strain, ANOVA p<0.05): 1.92 µg/mL
MBC ([2]; Fusobacterium nucleatum ATCC 25586, read-out: MBC): ~1 µg/mL
MIC:MBC ratio ([2]; F. nucleatum 25586): 1.0
MBC ([2]; Fusobacterium nucleatum, F. nucleatum 25586, experiment 1, read-out: MBC (μg/ml) 1): 1 µg/mL
MBC ([2]; Fusobacterium nucleatum, F. nucleatum 25586, experiment 2, read-out: MBC (μg/ml) 2): 1 µg/mL
MIC ([3]; Fusobacterium nucleatum ATCC 25586, read-out: MIC): ~1 µg/mL
MIC ([3]; Fusobacterium nucleatum, F. nucleatum 25586, experiment 1, read-out: MIC (μg/ml) 1): 1 µg/mL
MIC ([3]; Fusobacterium nucleatum, F. nucleatum 25586, experiment 2, read-out: MIC (μg/ml) 2): 1 µg/mL
toxicity to SF1Ep cells (WST-1) (SF1Ep cells): not toxic
MBC ([4]; ATCC33277, P. gingivalis 33277, experiment 1, read-out: MBC (μg/ml) 1): > 5 µg/mL
MBC ([4]; ATCC33277, P. gingivalis 33277, experiment 2, read-out: MBC (μg/ml) 2): > 5 µg/mL
MIC (Treponema denticola; ATCC35404, ATCC 35404, strain most tolerant, read-out: MIC): 5 µg/mL
MIC (Treponema denticola; ATCC35404, ATCC strain 35404, range, read-out: MIC): 0.5 to 5 µg/mL
MIC (Treponema denticola; ATCC35405, Type strain ATCC 35405, read-out: MIC): 0.2 µg/mL
MIC (Treponema denticola; T. denticola 33520, experiment 1, read-out: MIC (μg/ml) 1): 1 µg/mL
MIC (Treponema denticola; T. denticola 33520, experiment 2, read-out: MIC (μg/ml) 2): 1 µg/mL
MIC (Treponema denticola; T. denticola 33521, experiment 1, read-out: MIC (μg/ml) 1): 0.5 µg/mL
MIC (Treponema denticola; T. denticola 33521, experiment 2, read-out: MIC (μg/ml) 2): 2 µg/mL
MIC (Treponema denticola; T. denticola 35404, experiment 1, read-out: MIC (μg/ml) 1): 0.5 to 1 µg/mL
MIC (Treponema denticola; T. denticola 35404, experiment 2, read-out: MIC (μg/ml) 2): 5 µg/mL
MIC (Treponema denticola; T. denticola 35405, experiment 1, read-out: MIC (μg/ml) 1): 0.2 µg/mL
MIC (Treponema denticola; T. denticola 35405, experiment 2, read-out: MIC (μg/ml) 2): 0.2 µg/mL
MIC (Treponema denticola; T. denticola ASLM, experiment 1, read-out: MIC (μg/ml) 1): 0.5 µg/mL
MIC (Treponema denticola; T. denticola ASLM, experiment 2, read-out: MIC (μg/ml) 2): 1 µg/mL
MIC (Treponema denticola; T. denticola H1-T, experiment 1, read-out: MIC (μg/ml) 1): 0.5 µg/mL
MIC (Treponema denticola; T. denticola H1-T, experiment 2, read-out: MIC (μg/ml) 2): 0.5 µg/mL
MIC (Treponema denticola; T. denticola OTK, experiment 1, read-out: MIC (μg/ml) 1): 0.5 µg/mL
MIC (Treponema denticola; T. denticola OTK, experiment 2, read-out: MIC (μg/ml) 2): 1 µg/mL
MIC (Treponema denticola; T. denticola SP44, experiment 1, read-out: MIC (μg/ml) 1): 1 µg/mL
MIC (Treponema denticola; T. denticola SP44, experiment 2, read-out: MIC (μg/ml) 2): 1 µg/mL
MIC (Treponema denticola; T. denticola US Trep, experiment 1, read-out: MIC (μg/ml) 1): 0.5 µg/mL
MIC (Treponema denticola; T. denticola US Trep, experiment 2, read-out: MIC (μg/ml) 2): 0.5 µg/mL
MIC (Treponema denticola; across T. denticola strains, read-out: MIC values for Treponema denticola strains, typical): ~0.5 µg/mL
MIC (Treponema denticola; low passage clinical isolate ASLM, read-out: MIC (Hyg A sensitivity)): 0.2 µg/mL
MIC (Treponema denticola; low passage clinical isolate SP44, read-out: MIC (Hyg A sensitivity)): 1 µg/mL
MIC values for Treponema denticola strains, range (Treponema denticola; across T. denticola strains): 0.2 to 1.0 µg/mL
concentration with treponemicidal activity ([5]; SS14 strain seeded onto no-antibiotic control plate): ≥ 0.12 µg/mL
Mean T47 copies/μL, Avg. [5, 6]: 2232 copies/μL
Mean T47 copies/μL, Expt. values [5, 6]: 1649 copies/μL and 3690 copies/μL and 3831 copies/μL and 2114 copies/μL and 445 copies/μL and 1541 copies/μL and 2079 copies/μL and 2511 copies/μL
Mean T47 copies/μL, Avg. [5, 7]: 199 copies/μL
Mean T47 copies/μL, Expt. values [5, 7]: 137 copies/μL and 310 copies/μL and 274 copies/μL and 99 copies/μL and 71 copies/μL and 159 copies/μL and 200 copies/μL and 343 copies/μL
Mean T47 copies/μL, Avg. [5, 8]: 20 copies/μL
Mean T47 copies/μL, Expt. values [5, 8]: 17 copies/μL and 14 copies/μL and 45 copies/μL and 0 copies/μL and 22 copies/μL and 25 copies/μL and 15 copies/μL and 24 copies/μL
Mean T47 copies/μL, Avg. [5, 9]: 13 copies/μL
Mean T47 copies/μL, Expt. values [5, 9]: 35 copies/μL and 16 copies/μL (2×) and 6 copies/μL and 5 copies/μL and 21 copies/μL and 7 copies/μL and 0 copies/μL
Mean T47 copies/μL, Avg. [5, 10]: 9 copies/μL
Mean T47 copies/μL, Expt. values [5, 10]: 2 copies/μL and 0 copies/μL (2×) and 16 copies/μL and 10 copies/μL and 31 copies/μL and 5 copies/μL and 6 copies/μL
Mean T47 copies/μL, Avg. [5, 11]: 7 copies/μL
Mean T47 copies/μL, Expt. values [5, 11]: 8 copies/μL and 11 copies/μL and 0 copies/μL (2×) and 3 copies/μL (2×) and 16 copies/μL and 13 copies/μL
Mean T47 copies/μL, Avg. [5, 12]: 13 copies/μL
Mean T47 copies/μL, Expt. values [5, 12]: 5 copies/μL (2×) and 7 copies/μL and 17 copies/μL and 19 copies/μL (2×) and 8 copies/μL and 22 copies/μL
Mean T47 copies/μL, Avg. [5, 13]: 19 copies/μL
Mean T47 copies/μL, Expt. values [5, 13]: 19 copies/μL and 25 copies/μL and 21 copies/μL (2×) and 18 copies/μL and 7 copies/μL and 15 copies/μL and 22 copies/μL
